Common to all, as to assay: Antimicrobial test, MIC90 by spread plate count
One test deals with Staphylococcus aureus. In kind it is cell-based. The note with it: ATCC9144, Staphylococcus aureus ATCC 9144. On the procedure: (§1) A respective one of Staphylococcus aureus, Escherichia coli, Pseudomonas aeruginosa, Salmonella enteritidis, and MRSA was inoculated into a LB broth, followed by incubation in a thermostatic shaking incubator (37° C.) until an OD600 value of 1.0 was reached. The respective resultant culture was centrifuged at 3,000 g for 10 minutes, and the cell pellet thus obtained was washed with a 5 mM phosphate buffer (pH 7.4), followed by suspending with a LB broth. The resultant bacterial broths of Staphylococcus aureus, Escherichia coli, Pseudomonas aeruginosa, Salmonella enteritidis, and MRSA (each of such five bacterial suspensions contained a bacterial concentration of 1×10^4 CFU/mL) were used for the following experiment.
(§2) A suitable amount of a respective one of CQD^DA, CQD^SPD, CQD^DA-SPM, CQD^DA-SPD, CQD^DA-PUT, CQD^DA-SPM-1, and CQD^DA-SPM-2 was freeze-dried, and the respective resultant freeze-dried powder was dissolved in deionized water, followed by dilution with a 5 mM phosphate buffer (pH 7.4), so as to obtain seven CQD solutions having different concentrations (0.05-50 μg/mL).
(§3) A respective one of the five CQD solutions (i.e., CQD^DA, CQD^SPD, CQD^DA-SPM, CQD^DA-SPD, and CQD^DA-PUT solutions), the DA solutions, and the SPM solutions and a respective one of the bacterial broths of Staphylococcus aureus and Escherichia coli were mixed in a 5 mM phosphate buffer (pH 7.4), and the respective resultant mixture was incubated in a thermostatic shaking incubator (37° C.) for 1 hour, followed by addition of a suitable amount of LB broth. After incubation with shaking for 18 hours, the respective resultant culture was subjected to serial dilution with a LB broth, so as to obtain seven dilutions (10^1 to 10^7).
(§4) Thereafter, 1 μL of the respective dilution was subjected to spread plate procedure. The number of surviving bacteria was counted, and the minimum inhibitory concentration to inhibit the growth of 90% of a bacterial isolate (MIC90) was determined according to the technique well known to and routinely used by one skilled in the art.
(§5) A respective one of the four CQD solutions (i.e., CQD^DA, CQD^DA-SPM, CQD^DA-SPM-1, and CQD^DA-SPM-2 solutions) and the SPM solutions and a respective one of bacterial broths of Staphylococcus aureus, Escherichia coli, Pseudomonas aeruginosa, Salmonella enteritidis, and MRSA were mixed in a 5 mM phosphate buffer (pH 7.4), and the respective resultant mixture was subjected to antimicrobial activity analysis according to the method described in section E of this example.

Another test concerns Escherichia coli. In kind it is cell-based. The note with it: BCRC10316, Escherichia coli BCRC 10316. On the procedure:
as §1, §2, §3, §4, §5

Another test concerns Salmonella enteritidis. In kind it is cell-based. The note with it: Salmonella enterica, ATCC 13076 / ENTERITIDIS; Table 4; Salmonella enteritidis ATCC 13076. The method, then:
as §1, §2, §3, §4, §5

Another test has as its system Pseudomonas aeruginosa. The test is classed as cell-based. The note with it: ATCC10145; Table 4; Pseudomonas aeruginosa ATCC 10145. On the procedure: as §1, §2, §3, §4, §5
A further test relates to MRSA. The test is classed as cell-based, Methicillin-resistant Staphylococcus aureus. The note with it: Staphylococcus aureus, ATCC 33592 / MRSA; Table 4; MRSA ATCC 33592. The method, then: as §1
A suitable amount of a respective one of CQD^DA, CQD^SPD, CQD^DA-SPM, CQD^DA-SPD, CQD^DA-PUT, CQD^DA-SPM-1, and CQD^DA-SPM-2 was freeze-dried, and the respective resultant freeze-dried powder was dissolved in deionized water, followed by dilution with a 5 mM phosphate buffer (pH 7.4), so as to obtain seven CQD solutions having different concentrations (0.05-50 μg/mL). […]

Setting [1] is: Table 3, 1 h in 5 mM phosphate buffer pH 7.4, then 18 h in LB broth.

≈ marks a conversion by molar mass, not a printed value.

On to `NCCc1ccc(O)c(O)c1` [DA, dopamine], for which the MIC90 was 250 µg/mL (≈ 1.63 mM) in the test on Staphylococcus aureus (setting [1]) and 512 µg/mL (≈ 3.34 mM) in the test on Escherichia coli (setting [1]).

For the compound `NCCCNCCCCNCCCN` [SPM, spermine], the MIC90 with Staphylococcus aureus (setting [1]) is 658 µg/mL (≈ 3.25 mM); with Staphylococcus aureus (Table 4), 658 µg/mL (≈ 3.25 mM); in the test on Salmonella enteritidis, 2660 µg/mL (≈ 13.1 mM); against Escherichia coli (setting [1]) it was 2350 µg/mL (≈ 11.6 mM); against Escherichia coli (Table 4), 2350 µg/mL (≈ 11.6 mM); with Pseudomonas aeruginosa, 2450 µg/mL (≈ 12.1 mM). In the test on MRSA, this compound gave an MIC90 of 1550 µg/mL (≈ 7.67 mM).

The term MIC90 denotes the lowest concentration that inhibits either 90% of growth or 90% of the strains tested, depending on the study. A higher MIC90 goes with lower susceptibility.

Values taken from patent US11166916B2, “Carbon quantum dots and preparation process and use thereof” (CHANG GUNG UNIVERSITY, priority 2019, dated 2021).
